The target of series [1] is T1, BK channels heterologously expressed in Xenopus laevis oocytes (Homo sapiens, UniProt Q12791).
T1 construct: expressed in transfected cells; host or cells: Xenopus laevis oocytes
Description: BK channel opening activity, two-electrode voltage clamp in Xenopus laevis oocytes. In kind it is cell-based. On the procedure: In this example the BK channel opening activity of Compound 12 (i.e. N-[5-Chloro-2-(1H-tetrazol-5-yl)-phenyl]-4-dipropylsulfamoyl-benzamide) is determined using BK channels heterologously expressed in Xenopus laevis oocytes.
The electrical current through the BK channel was measured using conventional two-electrode voltage clamp. BK currents were activated by repeating ramp protocols. In brief, the membrane potential was continuously changed from −120 mV to +120 mV within a 2 s period. The threshold for BK activation is approximately +30 mV under control conditions. Compounds were applied for 100 s during which the ramp protocol was repeated 10 times with 10 s intervals. In between the ramp protocols the membrane potential was clamped at −80 mV. The first three compound applications were control blanks where the current level is allowed to stabilize.
In order to evaluate the ability of the compounds to shift the BK activation curve towards lower membrane potentials, the BK current was transformed into conductance by using Ohm's law g=I/(Ememb−Erev), where g is the conductance, I is the current, Ememb is the membrane potential and Erev is the reversal potential. The extracellular solution for these experiments contained 2.5 mM K+ and the intracellular K+ concentration of an oocyte was estimated to be 100 mM. Under those conditions, Nernst equation predicts a reversal potential of Erev=−93.2 mV. The control conductance level at a membrane potential of +100 mV was calculated, and the compound effect was evaluated as the potential difference, ΔV, to the membrane potential at which the same conductance level was obtained in the presence of compound.
The concentration response curve for this potential difference was fitted to the sigmoidal logistic equation: ΔV=ΔVmax/(1+(EC50/[compound])^n), where ΔVmax represents the maximal left shift of the BK activation curve, EC50 is the concentration causing a half maximal response, and n is the slope coefficient.
(In general: Two-electrode voltage clamp holds a large cell at a set potential and records current.)

T1 sequence (Q12791 whole entry): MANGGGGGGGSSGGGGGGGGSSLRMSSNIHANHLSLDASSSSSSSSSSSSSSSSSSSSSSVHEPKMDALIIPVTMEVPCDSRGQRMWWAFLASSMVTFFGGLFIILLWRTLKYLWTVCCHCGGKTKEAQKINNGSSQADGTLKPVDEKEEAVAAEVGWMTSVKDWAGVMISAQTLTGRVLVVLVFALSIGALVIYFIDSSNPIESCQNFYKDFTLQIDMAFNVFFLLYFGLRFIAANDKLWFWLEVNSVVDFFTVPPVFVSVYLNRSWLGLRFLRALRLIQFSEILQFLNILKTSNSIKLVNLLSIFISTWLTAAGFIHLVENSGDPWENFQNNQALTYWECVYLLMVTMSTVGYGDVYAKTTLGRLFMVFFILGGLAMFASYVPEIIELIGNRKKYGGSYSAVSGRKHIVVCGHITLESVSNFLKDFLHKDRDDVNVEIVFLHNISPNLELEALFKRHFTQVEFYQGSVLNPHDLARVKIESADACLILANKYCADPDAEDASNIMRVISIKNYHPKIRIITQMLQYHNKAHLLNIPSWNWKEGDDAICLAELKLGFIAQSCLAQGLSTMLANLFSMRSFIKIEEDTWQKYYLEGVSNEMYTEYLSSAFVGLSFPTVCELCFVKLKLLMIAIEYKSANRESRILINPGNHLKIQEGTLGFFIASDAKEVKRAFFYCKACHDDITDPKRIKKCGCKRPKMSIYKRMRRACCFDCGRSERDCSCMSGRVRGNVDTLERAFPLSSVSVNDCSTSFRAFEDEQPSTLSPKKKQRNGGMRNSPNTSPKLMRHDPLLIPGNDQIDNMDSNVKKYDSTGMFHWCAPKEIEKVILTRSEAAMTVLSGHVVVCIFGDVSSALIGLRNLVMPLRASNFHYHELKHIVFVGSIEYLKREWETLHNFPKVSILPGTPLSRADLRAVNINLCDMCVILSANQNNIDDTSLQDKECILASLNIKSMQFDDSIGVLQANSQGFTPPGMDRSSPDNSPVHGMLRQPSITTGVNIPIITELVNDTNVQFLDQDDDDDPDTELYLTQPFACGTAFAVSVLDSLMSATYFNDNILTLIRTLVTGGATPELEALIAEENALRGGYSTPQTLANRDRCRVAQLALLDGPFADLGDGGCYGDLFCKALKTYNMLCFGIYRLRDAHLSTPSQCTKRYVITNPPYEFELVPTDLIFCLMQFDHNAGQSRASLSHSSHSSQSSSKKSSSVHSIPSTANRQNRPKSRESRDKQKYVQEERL

Regarding `CCCN(CCC)S(=O)(=O)c1ccc(C(=O)Nc2cc(Cl)ccc2-c2nnn[nH]2)cc1` [Compound 12, N-[5-Chloro-2-(1H-tetrazol-5-yl)-phenyl]-4-dipropylsulfamoyl-benzamide], the “ΔVmax, maximal left shift of the BK activation curve” value in series [1] (BKCa channels expressed in Xenopus oocytes, 0.01-31.6 μM, sigmoidal logistic fit) is reported as −110 mV. In series [1] (BKCa channels expressed in Xenopus oocytes, ramp −120 to +120 mV, 0.01-31.6 μM, ΔV at control conductance level of +100 mV, sigmoidal logistic fit, read-out: EC50 for the left-shift of the BK activation curve (ΔV)), the EC50 came to 1300 nM. Also, the “BK current level at depolarizing potentials” value in series [1] (increasing concentrations (0.01-31.6 μM) applied, 100 s each, ramp protocol) was “marked increase in the current level at depolarizing potentials”.

A word on the melting point: it is the temperature of the solid-liquid transition. Take `O=C(Nc1cc(Cl)ccc1-c1nnn[nH]1)c1ccc2ccccc2c1O` [Compound 8, 1-Hydroxy-naphthalene-2-carboxylic acid [5-chloro-2-(1H-tetrazol-5-yl)-phenyl]-amide]: the melting point was in the range of 221 to 225 °C.

`O=C(Nc1cc(Cl)ccc1-c1nnn[nH]1)c1cc(C(F)(F)F)cc(C(F)(F)F)c1` [Compound 4, N-[5-Chloro-2-(1H-tetrazol-5-yl)-phenyl]-3,5-bis-trifluoromethyl-benzamide]: the melting point is 247 to 249 °C.
